The experiment concerns CD2F1 mice, L1210 leukemia ip, survival T/C. Put plainly: NCI In Vivo Anticancer Drug Screen. Data for tumor model L1210 Leukemia (intraperitoneal) in CD2F1 (CDF1) mice. Conditions: higher = longer survival. The essentials:
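Antitumor effect is scored in animals hosting a serially transplanted tumor. Values compare compound-dosed animals against vehicle-only controls as a simple quotient.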

Where [1] appears, read: endpoint: mean survival time, dose: 50.0 mg/kg/injection, schedule: Q01DX009 (ip), vehicle: saline with Tween-80.
Where [2] appears, read: endpoint: mean survival time, dose: 100.0 mg/kg/injection, schedule: Q04DX002 (ip), vehicle: saline with Tween-80.
The mark [3] stands for this setting: endpoint: mean survival time, dose: 200.0 mg/kg/injection, schedule: Q04DX002 (ip), vehicle: saline with Tween-80.
Setting [4] is: endpoint: mean survival time, dose: 400.0 mg/kg/injection, schedule: Q04DX002 (ip), vehicle: saline with Tween-80.
[5] abbreviates: endpoint: mean survival time, dose: 100.0 mg/kg/injection, schedule: Q01DX001 (ip), vehicle: saline with Tween-80.
The mark [6] stands for this setting: endpoint: mean survival time, dose: 200.0 mg/kg/injection, schedule: Q01DX001 (ip), vehicle: saline with Tween-80.
Where [7] appears, read: endpoint: mean survival time, dose: 400.0 mg/kg/injection, schedule: Q01DX001 (ip), vehicle: saline with Tween-80.
The mark [8] stands for this setting: endpoint: mean survival time, dose: 100.0 mg/kg/injection, schedule: Q04DX003 (ip), vehicle: saline with Tween-80.
[9] abbreviates: endpoint: mean survival time, dose: 200.0 mg/kg/injection, schedule: Q04DX003 (ip), vehicle: saline with Tween-80.
The mark [10] stands for this setting: endpoint: mean survival time, dose: 100.0 mg/kg/injection, schedule: Q01DX009 (ip), vehicle: saline with Tween-80.
The mark [11] stands for this setting: endpoint: mean survival time, dose: 200.0 mg/kg/injection, schedule: Q01DX009 (ip), vehicle: saline with Tween-80.

Values joined by “and” are separate entries in the source; they are usually repeats but may differ in a detail not shown here. Equal values may be shown once. Toxic doses and inconclusive results are not listed.

As for `C[Si](C)(C)CS(=O)[O-].[C-]#[O+].[C-]#[O+].[Fe+6].[c-]1[c-][c-][cH-][c-]1`, the T/C was 105 % of control (endpoint: mean survival time, dose: 12.5 mg/kg/injection, schedule: Q04DX002 (ip), vehicle: saline); 94 % of control (endpoint: mean survival time, dose: 25.0 mg/kg/injection, schedule: Q04DX002 (ip), vehicle: saline); 87 % of control (endpoint: mean survival time, dose: 50.0 mg/kg/injection, schedule: Q04DX002 (ip), vehicle: saline).

As to `Cc1cc(O)c2c(c1O)C(=O)c1cccc(O)c1C2=O`, the T/C (endpoint: mean survival time, dose: 0.75 mg/kg/injection, schedule: Q01DX009 (ip), vehicle: Klucel (hydroxypropylcellulose) (HPC)) was 103 % of control; the T/C (endpoint: mean survival time, dose: 1.5 mg/kg/injection, schedule: Q01DX009 (ip), vehicle: Klucel (hydroxypropylcellulose) (HPC)) is 98 % of control; the T/C (endpoint: mean survival time, dose: 3.0 mg/kg/injection, schedule: Q01DX009 (ip), vehicle: Klucel (hydroxypropylcellulose) (HPC)) is 101 % of control; the T/C (endpoint: mean survival time, dose: 6.0 mg/kg/injection, schedule: Q01DX009 (ip), vehicle: Klucel (hydroxypropylcellulose) (HPC)) is 113 % of control.

Regarding `O=C1NC(=O)C(=C/C=C/c2ccccc2)C(=O)N1`, the T/C runs as follows: (endpoint: mean survival time, dose: 12.5 mg/kg/injection, schedule: Q01DX009 (ip), vehicle: saline with Tween-80) 97 % of control; (endpoint: mean survival time, dose: 25.0 mg/kg/injection, schedule: Q01DX009 (ip), vehicle: saline with Tween-80) 94 % of control; under setting [1], 91 % of control and 103 % of control.

For the compound `NC(=O)c1n[nH]c(C2OC(CO)C(O)C2O)n1` (stereo unspecified), the T/C is 94 % of control (endpoint: mean survival time, dose: 12.5 mg/kg/injection, schedule: Q01DX005 (ip), vehicle: water); 92 % of control (endpoint: mean survival time, dose: 25.0 mg/kg/injection, schedule: Q01DX005 (ip), vehicle: water); 94 % of control (endpoint: mean survival time, dose: 50.0 mg/kg/injection, schedule: Q01DX005 (ip), vehicle: water); 94 % of control (endpoint: mean survival time, dose: 100.0 mg/kg/injection, schedule: Q01DX005 (ip), vehicle: water); 96 % of control (endpoint: mean survival time, dose: 200.0 mg/kg/injection, schedule: Q01DX005 (ip), vehicle: water).

Consider `Brc1nc(-c2ccccc2)cc(-c2ccccc2)c1-c1ccccc1`, for which the T/C is 90 % of control under setting [2], 90 % of control under setting [3] and 97 % of control under setting [4].

Consider `CN(C)N=Nc1cn[nH]c1C(N)=O`, for which the T/C (endpoint: mean survival time, dose: 100.0 mg/kg/injection, schedule: Q01DX009 (ip), vehicle: Klucel (hydroxypropylcellulose) (HPC)) was 172 % of control.

`c1ccc(-c2cscc2-c2ccccc2)cc1`: the T/C under setting [5] is 96 % of control, the T/C under setting [6] is 96 % of control and the T/C under setting [7] is 96 % of control.

`O=S(=O)(Nc1cc(S(=O)(=O)c2ccccc2)c(O)c2ccccc12)c1ccccc1`: the T/C is 96 % of control under setting [8]; 86 % of control under setting [9]; 91 % of control (endpoint: mean survival time, dose: 400.0 mg/kg/injection, schedule: Q04DX003 (ip), vehicle: saline with Tween-80).

For `NC(Cc1ccccc1)C(=O)OCN1C(=O)C2C3C=CC(C2C1=O)C1C2C(=O)N(COC(=O)C(N)Cc4ccccc4)C(=O)C2C31` (stereo unspecified), the T/C was 116 % of control (endpoint: median survival time, dose: 21.6 mg/kg/injection, schedule: Q01DX009 (ip), vehicle: water); 117 % of control (endpoint: median survival time, dose: 36.0 mg/kg/injection, schedule: Q01DX009 (ip), vehicle: water); 188 % of control (endpoint: median survival time, dose: 100.0 mg/kg/injection, schedule: Q01DX009 (ip), vehicle: water).

`CCCCCCCCCCCCCCCC(=O)NCCNC(=O)CCCCCCCCCCCCCCC`: the T/C under setting [1] is 92 % of control; the T/C (endpoint: mean survival time, dose: 75.0 mg/kg/injection, schedule: Q01DX001 (ip), vehicle: saline) is 98 % of control; the T/C under setting [10] was 90 % of control; the T/C (endpoint: mean survival time, dose: 150.0 mg/kg/injection, schedule: Q01DX001 (ip), vehicle: saline) was 93 % of control; the T/C under setting [11] was 94 % of control; the T/C (endpoint: mean survival time, dose: 300.0 mg/kg/injection, schedule: Q01DX001 (ip), vehicle: saline) was 98 % of control.

`CC1C2OC2C(C)S1(=O)=O` (stereo unspecified): the T/C reads like this: under setting [5], 100 % of control; under setting [2], 93 % of control; under setting [6], 101 % of control; under setting [3], 101 % of control; under setting [7], 101 % of control; under setting [4], 89 % of control.

Regarding `CN(Cc1cnc2nc(N)nc(N)c2n1)c1ccc(C(=O)N[C@@H](CCC(=O)O)C(N)=O)cc1`, the T/C (endpoint: mean survival time, dose: 3.0 mg/kg/injection, schedule: Q01DX009 (ip), vehicle: sodium bicarbonate) is 98 % of control; the T/C (endpoint: mean survival time, dose: 6.0 mg/kg/injection, schedule: Q01DX009 (ip), vehicle: sodium bicarbonate) is 100 % of control; the T/C (endpoint: mean survival time, dose: 12.0 mg/kg/injection, schedule: Q01DX009 (ip), vehicle: sodium bicarbonate) was 111 % of control; the T/C (endpoint: mean survival time, dose: 50.0 mg/kg/injection, schedule: Q01DX009 (ip), vehicle: sodium bicarbonate) is 114 % of control.

With `O=C(Nc1c[nH]c(=O)[nH]c1=O)C(Cl)Cl`, the T/C was 109 % of control (endpoint: mean survival time, dose: 100.0 mg/kg/injection, schedule: Q04DX003 (ip), vehicle: other) and 94 % of control (endpoint: mean survival time, dose: 200.0 mg/kg/injection, schedule: Q04DX003 (ip), vehicle: other).

Regarding `CSc1ccc(C2=CCCCC2)cc1`, the T/C was 91 % of control (endpoint: mean survival time, dose: 100.0 mg/kg/injection, schedule: Q04DX003 (ip), vehicle: saline); 91 % of control (endpoint: mean survival time, dose: 200.0 mg/kg/injection, schedule: Q04DX003 (ip), vehicle: saline); 96 % of control (endpoint: mean survival time, dose: 400.0 mg/kg/injection, schedule: Q04DX003 (ip), vehicle: saline).

Take `O=C(O)CC1(c2ccccc2)OC(=O)c2ccccc21` (stereo unspecified): the T/C was 91 % of control under setting [5]; 96 % of control under setting [10]; 94 % of control under setting [6]; 100 % of control under setting [11]; 89 % of control under setting [7].

In the case of `S=C(Nc1ccccc1)N1CCC(CCCC2CCN(C(=S)Nc3ccccc3)CC2)CC1`, the T/C was 91 % of control under setting [8] and 88 % of control under setting [9].

The values above are taken from PubChem BioAssay AID256 (DTP/NCI, 2004).
